Test results from US20130280214A1, “POLYCYCLIC HETEROCYCLE DERIVATIVES AND METHODS OF USE THEREOF FOR THE TREATMENT OF VIRAL DISEASES” (Merck Sharp & Dohme Corp., priority 2010, published 2013).
Where two headings read alike, the source gives them in different places.

Tests used:
[1] = Cytotoxicity assay (CellTiter Blue); format: cell-based; conditions: CellTiter Blue, cells treated 72 hours
Procedure: (§1) The cytotoxicity of compounds of Table 1 and of the additional therapeutic agents used in the compositions and methods of the present invention can be measure using the assay described below.
(§2) Compounds are ordered 1 or 2 days before the experiment. Compounds and cells are prepared using the method described in Example 2 for the RHEPLUC assay (See FIG. 1) or combination study (See FIG. 2)
(§3) After 3 day incubation of cells with individual test compounds, cytotoxicity is determined using CellTiter Blue as described in the assay protocol below.
(§4) The CellTiter Blue solution (4 mL) is diluted with 1× Dulbecco's PBS (16 mL). 5 μL of the resulting solution is added to each well of the 384 well assay plate containing cells treated with compound for 72 hours. The plate is shaken for 10 seconds, then incubated in 5% CO2 at 37° C. for 1 hour. The plate is then shaken again for 10 seconds and the fluorescence is measured at excitation wavelength 540 nm and emission wavelength 590 nm.
(§5) NOTE: cells (all genotypes and mutants) are cultured in DMEM/10% FBS in the presence of G418. During the assay G418 is absent.
(§6) For cytotoxicity assays data is analyzed to obtain the CC50 of each compound tested alone and in combination. The analysis uses the average of 100% cytotoxicity (media only without cells) and 0% cytotoxicity (100% viability, 0.5% DMSO in the presence of cells) to calculate the percentage of compound cytotoxicity and CC50 using the following 4 parameter equation:
(§7) Wherein average low=100% cytotoxicity (media only) and average high=100% viability (0.5% DMSO).
(§8) CC50 values were calculated for a selected Polycyclic Heterocycle Derivative of the present invention (compound 2) and for […] first additional therapeutic agents of the present invention. The therapeutic index for the selected compounds was also calculated, wherein TI=CC50/EC50.

replicon cells = assay: Cytotoxicity assay (CellTiter Blue); format: cell-based; conditions: TI=CC50/EC50
Procedure: as §1, §2, §3, §4, §5, §6, §7, §8

HCV replicon = assay: RHEPLUC assay (replicon luciferase, EC50 of single agents); format: cell-based, Hepatitis C virus (HCV); conditions: Hepatitis C virus
Procedure: The previously determined EC50 for each test compound is then placed in the middle of the combination study titration curve.
Test compounds are ordered at 4000× final concentration, one or two days before the assay, and are diluted 1/10 in DMSO (400× concentration). The diluted first test compound (400×) is distributed in a first low dead volume plate as described in FIG. 1. The diluted second test compound (400×) is distributed in a second low dead volume plate as described in FIG. 2.
To obtain maximum luciferase signal (0% inhibition control), 100% DMSO is added to the 200× test compound mix plate. For minimum luciferase signal (100% inhibition control), a known NS5A inhibitor (Compound A, EC50 of 0.01 nM, made as described in International Patent Application No. PCT/US2010/028653) is used at 1 nM final concentration. Accordingly, 6 μL of 200 nM Compound A is added to the 200× test compound mix plate (see FIG. 4).
On the day of the experiment, Complete growth media (10 μL) is added to all wells in a 384 well assay plate, then 150 nL per well from the test compound mix plate is added to the assay plate.
The cell monolayer is rinsed with pre-warmed PBS (˜37° C.), then pre-warmed trypsin (0.25%, ˜37° C.) is added and the cells are incubated for 2 to 5 minutes in 5% CO2 at 37° C. Complete growth media is then added, cells are mixed and counted, and then diluted in complete growth media to a final concentration of 1.0×10^5 cells/mL. […]
Bright-Glo Luciferase reagent is prepared as specified by the kit instructions and kept in the dark until the reagent has reached room temperature. […] The plate is allowed to incubate for 5 minutes at room temperature, then the plate is placed on a reader within 30 minutes after incubation is complete, and the luminescence is monitored at 0.5 seconds per well.
Using the RHEPLUC assay, EC50 values were calculated prior to initiation of combination studies for a selected Polycyclic Heterocycle Derivative of the present invention (compound 2) and for two first additional therapeutic agents of the present invention (compounds F5 and F7).

[2] = test system: genotype 1a replicon cells; assay: 3-day cell-based HCV replicon assay (Taqman); conditions: Hepatitis C virus
Procedure: The replicon RNA level was measured using real time PCR (Taqman assay). […] EC50 was defined as the concentration of inhibitor necessary to achieve ΔCT=1 over the projected baseline; EC90 the concentration necessary to achieve ΔCT=3.2 over the baseline. Alternatively, to quantitate the absolute amount of replicon RNA, a standard curve was established by including serially diluted T7 transcripts of replicon RNA in the Taqman assay. All Taqman reagents were from PE Applied Biosystems. Such an assay procedure was described in detail in e.g. Malcolm et al., Antimicrobial Agents and Chemotherapy 50: 1013-1020 (2006).

[3] = test system: genotype 1a replicon cells; assay: 15-day cell-based HCV replicon curing assay; design: species or system Hepatitis C virus (HCV); conditions: genotype 1a replicon cells treated 15 days
[4] = RHEPLUC assay, single agent, 72 hours incubation

| SMILES | CC50 at 72 h [1] | Therapeutic Index (replicon cells) | EC50 (HCV replicon; [4]) | EC90 ([2]; printed as 1×EC90, read-out: EC90) | EC50 (HCV replicon; known NS5A inhibitor used as 100% inhibition control, assay of the value not stated) | EC90 ([2]; printed value is three times the EC90, read-out: 3×EC90) | NS3 (amino acid residues 1-180) population sequence analysis, resistance mutations [3] |
| --- | --- | --- | --- | --- | --- | --- | --- |
| COC(=O)N[C@H](C(=O)N1CCC[C@H]1c1ncc(-c2ccc(-c3cc4cc(-c5cnc([C@@H]6CCCN6C(=O)[C@@H](NC(=O)OC)C(C)C)[nH]5)ccc4o3)cc2)[nH]1)C(C)C [Compound 2] | 9700 nM | 2425000 | 0.004 nM | 0.006 nM | – | – | – |
| COC(=O)NC(C(=O)N1CCC[C@H]1c1ncc(-c2ccc3oc(-c4ccc(-c5cnc([C@@H]6CCCN6C(=O)[C@H](NC(=O)OC)c6ccccc6)[nH]5)cc4)cc3c2)[nH]1)c1ccccc1 (stereo partly shown) [Compound A, reference compound] | – | – | – | – | 0.01 nM | – | – |
| C=C[C@@H]1C[C@]1(NC(=O)[C@@H]1C[C@@H]2CN1C(=O)[C@H](C(C)(C)C)NC(=O)O[C@@H]1C[C@H]1CCCCCc1nc3ccc(OC)cc3nc1O2)C(=O)NS(=O)(=O)C1CC1 [Compound F5] | 35000 nM | 108865 | 0.322 nM | – | – | 7.5 nM | low levels of D168G and P88A |
